Each compound was assayed against S. aureus GyrB ATPase (Staphylococcus aureus, UniProt P0A0K8) (assay: biochemical). Details: compound at 1 μM; one value per test if tested more than once; read-out: % Inhibition of S. aureus GyrB ATPase.
How it was run: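 IC50 values derive from 10-point titrations of compound (in DMSO). Phosphate formed from 250 μM ATP was quantified by acidic molybdate/malachite green after quenching.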

Chain of S. aureus GyrB ATPase (P0A0K8 whole entry): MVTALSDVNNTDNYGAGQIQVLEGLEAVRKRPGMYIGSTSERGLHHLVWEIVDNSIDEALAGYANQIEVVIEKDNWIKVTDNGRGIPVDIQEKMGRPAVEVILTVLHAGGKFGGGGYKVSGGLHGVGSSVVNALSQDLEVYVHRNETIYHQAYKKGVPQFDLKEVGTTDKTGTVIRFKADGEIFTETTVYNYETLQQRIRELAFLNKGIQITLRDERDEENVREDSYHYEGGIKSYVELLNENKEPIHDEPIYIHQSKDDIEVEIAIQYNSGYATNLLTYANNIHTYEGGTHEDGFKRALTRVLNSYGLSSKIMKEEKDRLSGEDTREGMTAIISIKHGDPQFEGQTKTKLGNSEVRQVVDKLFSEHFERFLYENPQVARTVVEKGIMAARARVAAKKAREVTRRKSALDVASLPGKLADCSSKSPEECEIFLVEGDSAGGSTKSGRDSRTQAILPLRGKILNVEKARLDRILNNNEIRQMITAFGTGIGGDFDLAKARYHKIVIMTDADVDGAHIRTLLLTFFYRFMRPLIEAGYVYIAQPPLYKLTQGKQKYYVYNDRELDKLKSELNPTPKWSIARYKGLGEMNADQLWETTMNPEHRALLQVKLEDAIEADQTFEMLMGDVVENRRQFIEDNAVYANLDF
Chain of S. aureus GyrB ATPase (P0AES4 whole entry, further chain): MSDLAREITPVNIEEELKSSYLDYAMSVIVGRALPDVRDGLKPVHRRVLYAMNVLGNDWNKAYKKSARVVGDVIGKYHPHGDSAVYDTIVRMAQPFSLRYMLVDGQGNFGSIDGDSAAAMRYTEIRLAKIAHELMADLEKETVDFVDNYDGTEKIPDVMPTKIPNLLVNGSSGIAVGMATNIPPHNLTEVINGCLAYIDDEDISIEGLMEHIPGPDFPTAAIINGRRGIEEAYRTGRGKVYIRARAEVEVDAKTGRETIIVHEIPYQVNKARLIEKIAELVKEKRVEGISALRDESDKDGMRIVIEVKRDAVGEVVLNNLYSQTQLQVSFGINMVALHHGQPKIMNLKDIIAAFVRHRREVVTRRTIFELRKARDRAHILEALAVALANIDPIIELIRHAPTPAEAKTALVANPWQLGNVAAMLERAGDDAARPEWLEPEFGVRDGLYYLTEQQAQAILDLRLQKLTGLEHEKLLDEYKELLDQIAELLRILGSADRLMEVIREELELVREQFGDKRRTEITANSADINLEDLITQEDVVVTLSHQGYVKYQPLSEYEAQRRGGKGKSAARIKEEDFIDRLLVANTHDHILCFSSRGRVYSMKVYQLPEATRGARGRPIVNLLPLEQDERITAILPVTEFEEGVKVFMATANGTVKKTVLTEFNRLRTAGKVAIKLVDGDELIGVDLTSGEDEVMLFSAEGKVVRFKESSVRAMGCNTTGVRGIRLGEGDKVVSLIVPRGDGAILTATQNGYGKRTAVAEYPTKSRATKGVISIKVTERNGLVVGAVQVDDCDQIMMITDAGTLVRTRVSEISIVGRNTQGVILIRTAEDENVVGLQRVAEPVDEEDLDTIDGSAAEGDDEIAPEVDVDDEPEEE

SMILES	inhibition at 1 µM [%]
CCCNC(=O)Nc1cc(-c2nc(C(F)(F)F)cs2)c(-c2ccc3c(c2)c(=O)c(C(=O)N2CCNCC2)cn3C2CN(C)C2)cn1 [Example 166, 1-(5-(1-(1-methylazetidin-3-yl)-4-oxo-3-(piperazine-1-carbonyl)-1,4-dihydroquinolin-6-yl)-4-(4-(trifluoromethyl)thiazol-2-yl)pyridin-2-yl)-3-propylurea]	104
CCNC(=O)Nc1cc(-c2nc(C(F)(F)F)cs2)c(-c2ccc3c(c2)c(=O)c(C(=O)N2CCN(C)CC2)cn3C2CN(C)C2)cn1 [Example 167, 1-ethyl-3-(5-(1-(1-methylazetidin-3-yl)-3-(4-methylpiperazine-1-carbonyl)-4-oxo-1,4-dihydroquinolin-6-yl)-4-(4-(trifluoromethyl)thiazol-2-yl)pyridin-2-yl)urea]	109
CCCNC(=O)Nc1cc(-c2nc(C(F)(F)F)cs2)c(-c2ccc3c(c2)c(=O)c(C(=O)N2CCN(C(C)=O)CC2)cn3C2CN(C)C2)cn1 [Example 168, 1-(5-(3-(4-acetylpiperazine-1-carbonyl)-1-(1-methylazetidin-3-yl)-4-oxo-1,4-dihydroquinolin-6-yl)-4-(4-(trifluoromethyl)thiazol-2-yl)pyridin-2-yl)-3-propylurea]	102
CCNC(=O)Nc1cc(-c2nc(C(F)(F)F)cs2)c(-c2ccc3c(c2)c(=O)c(C(=O)N2CCN(C(C)=O)CC2)cn3C2CN(C)C2)cn1 [Example 169, 1-(5-(3-(4-acetylpiperazine-1-carbonyl)-1-(1-methylazetidin-3-yl)-4-oxo-1,4-dihydroquinolin-6-yl)-4-(4-(trifluoromethyl)thiazol-2-yl)pyridin-2-yl)-3-ethylurea]	105
CCCNC(=O)Nc1cc(-c2nc(C(F)(F)F)cs2)c(-c2ccc3c(c2)c(=O)c(C(=O)N2CCN(S(C)(=O)=O)CC2)cn3C2CN(C)C2)cn1 [Example 170, 1-(5-(1-(1-methylazetidin-3-yl)-3-(4-(methylsulfonyl)piperazine-1-carbonyl)-4-oxo-1,4-dihydroquinolin-6-yl)-4-(4-(trifluoromethyl)thiazol-2-yl)pyridin-2-yl)-3-propylurea]	102
CCNC(=O)Nc1cc(-c2nc(C(F)(F)F)cs2)c(-c2ccc3c(c2)c(=O)c(C(=O)N2CCNCC2)cn3C2CN(C)C2)cn1 [Example 171, 1-ethyl-3-(5-(1-(1-methylazetidin-3-yl)-4-oxo-3-(piperazine-1-carbonyl)-1,4-dihydroquinolin-6-yl)-4-(4-(trifluoromethyl)thiazol-2-yl)pyridin-2-yl)urea]	112
CCCNC(=O)Nc1cc(-c2nc(C(F)(F)F)cs2)c(-c2ccc3c(c2)c(=O)c(C(=O)N2CCN(C)CC2)cn3C2CN(C)C2)cn1 [Example 172, 1-(5-(1-(1-methylazetidin-3-yl)-3-(4-methylpiperazine-1-carbonyl)-4-oxo-1,4-dihydroquinolin-6-yl)-4-(4-(trifluoromethyl)thiazol-2-yl)pyridin-2-yl)-3-propylurea]	107
CC(C)NC(=O)Nc1cc(-c2nc(C(F)(F)F)cs2)c(-c2ccc3c(c2)c(=O)c(C(=O)O)cn3CCN(C)C)cn1 [Example 189, 1-(2-(dimethylamino)ethyl)-7-(6-(3-isopropylureido)-4-(4-(trifluoromethyl)thiazol-2-yl)pyridin-3-yl)-4-oxo-1,4-dihydroquinoline-3-carboxylate]	100
CCCNC(=O)Nc1cc(-c2nc(C(F)(F)F)cs2)c(-c2ccc3c(c2)c(=O)c(C(=O)O)cn3CCOC)cn1 [Example 191, 1-(2-methoxyethyl)-4-oxo-6-(6-(3-propylureido)-4-(4-(trifluoromethyl)thiazol-2-yl)pyridin-3-yl)-1,4-dihydroquinoline-3-carboxylic acid]	94
CCCNC(=O)Nc1cc(-c2nc(C(F)(F)F)cs2)c(-c2ccc3c(c2)c(=O)c(C(=O)O)cn3C2CCOCC2)cn1 [Example 192, 4-oxo-6-(6-(3-propylureido)-4-(4-(trifluoromethyl)thiazol-2-yl)pyridin-3-yl)-1-(tetrahydro-2H-pyran-4-yl)-1,4-dihydroquinoline-3-carboxylic acid]	92
CCCNC(=O)Nc1cc(-c2nc(C(F)(F)F)cs2)c(-c2ccc3c(c2)c(=O)c(C(=O)O)cn3CCN2CCOCC2)cn1 [Example 193, 1-(2-morpholinoethyl)-4-oxo-6-(6-(3-propylureido)-4-(4-(trifluoromethyl)thiazol-2-yl)pyridin-3-yl)-1,4-dihydroquinoline-3-carboxylic acid]	93
COCCn1cc(C(=O)O)c(=O)c2cc(-c3cnc(NC(=O)NC(C)C)cc3-c3nc(C(F)(F)F)cs3)ccc21 [Example 194, 6-(6-(3-isopropylureido)-4-(4-(trifluoromethyl)thiazol-2-yl)pyridin-3-yl)-1-(2-methoxyethyl)-4-oxo-1,4-dihydroquinoline-3-carboxylic acid]	93
CC(C)NC(=O)Nc1cc(-c2nc(C(F)(F)F)cs2)c(-c2ccc3c(c2)c(=O)c(C(=O)O)cn3CCN2CCOCC2)cn1 [Example 195, 6-(6-(3-isopropylureido)-4-(4-(trifluoromethyl)thiazol-2-yl)pyridin-3-yl)-1-(2-morpholinoethyl)-4-oxo-1,4-dihydroquinoline-3-carboxylic acid]	98
CC(C)NC(=O)Nc1cc(-c2nc(C(F)(F)F)cs2)c(-c2ccc3c(c2)c(=O)c(C(=O)O)cn3CCC2CCOCC2)cn1 [Example 197, 7-(6-(3-isopropylureido)-4-(4-(trifluoromethyl)thiazol-2-yl)pyridin-3-yl)-4-oxo-1-(2-(tetrahydro-2H-pyran-4-yl)ethyl)-1,4-dihydroquinoline-3-carboxylate]	116
CCCNC(=O)Nc1cc(-c2nc(C(F)(F)F)cs2)c(-c2ccc3c(c2)c(=O)c(C(=O)O)cn3CCC2CCN(C)CC2)cn1 [Example 198, 1-(2-(1-methylpiperidin-4-yl)ethyl)-4-oxo-6-(6-(3-propylureido)-4-(4-(trifluoromethyl)thiazol-2-yl)pyridin-3-yl)-1,4-dihydroquinoline-3-carboxylic acid]	108
CC(C)NC(=O)Nc1cc(-c2nc(C(F)(F)F)cs2)c(-c2ccc3c(c2)c(=O)c(C(=O)O)cn3C2CCOCC2)cn1 [Example 199, 6-(6-(3-isopropylureido)-4-(4-(trifluoromethyl)thiazol-2-yl)pyridin-3-yl)-4-oxo-1-(tetrahydro-2H-pyran-4-yl)-1,4-dihydroquinoline-3-carboxylic acid]	103
CCCNC(=O)Nc1cc(-c2nc(C(F)(F)F)cs2)c(-c2ccc3c(c2)c(=O)c(C(=O)O)cn3CCC2CCOCC2)cn1 [Example 200, 4-oxo-6-(6-(3-propylureido)-4-(4-(trifluoromethyl)thiazol-2-yl)pyridin-3-yl)-1-(2-(tetrahydro-2H-pyran-4-yl)ethyl)-1,4-dihydroquinoline-3-carboxylic acid]	111
CC(C)NC(=O)Nc1cc(-c2nc(C(F)(F)F)cs2)c(-c2ccc3c(c2)c(=O)c(C(=O)O)cn3CCC2CCN(C)CC2)cn1 [Example 202, 6-(6-(3-isopropylureido)-4-(4-(trifluoromethyl)thiazol-2-yl)pyridin-3-yl)-1-(2-(1-methylpiperidin-4-yl)ethyl)-4-oxo-1,4-dihydroquinoline-3-carboxylic acid]	103
